Data reported in US8580832B2, “Substituted phenoxy aminothiazolones as estrogen related receptor-α modulators” (Janssen Pharmaceutica N.V., priority 2007, dated 2013).

Target: T1, ERR1 (also known as ERR-α or ERR-1) (Homo sapiens, UniProt P11474)
T1 construct: the ^6His-tagged-ERR1 LBD
T1 sequence (P11474 193-421 limits assumed): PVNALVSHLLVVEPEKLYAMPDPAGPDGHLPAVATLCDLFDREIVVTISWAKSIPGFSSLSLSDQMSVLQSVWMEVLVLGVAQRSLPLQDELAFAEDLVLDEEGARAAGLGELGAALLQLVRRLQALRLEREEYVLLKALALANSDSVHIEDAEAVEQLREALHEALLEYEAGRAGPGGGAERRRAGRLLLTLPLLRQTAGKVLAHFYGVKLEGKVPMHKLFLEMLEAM
Assay: TR-FRET assay: disruption of co-activator peptide binding to ERR1 LBD
Type: biochemical
Conditions: 6His-tagged ERR1 LBD 6 nM, GST-SRC-2 peptide 6 nM, 25° C., 4-18 hours; average of 3 independent experiments
Experimental: Time-Resolved Fluorescence Resonance Energy Transfer (TR-FRET) experiments were performed to examine the functional response of ERR1 (also known as ERR-α or ERR-1) ligands. The TR-FRET assay described herein relied on the conformation of ERR1 for binding to a co-activator peptide: when a test compound binds to ERR1 and alters its conformation, it can disrupt the binding of the co-activator peptide. The components of this homogeneous secondary assay included: the ^6His-tagged-ERR1 LBD, a GST-labeled-hSRC2 co-activator polypeptide and a fluorescent donor/acceptor pair from CIS bio international htrf/bioassays (Bedford, Mass.) using both an α-GST Europium Cryptate (Eu) label and an α^6His-XL665 (allophycocyanin) fluorophore.
For TR-FRET measurements, the reaction was buffered in 25 mM Tris pH 8, 2.5 mM Hepes, 20 mM KCl, 1 mM DTT, and 0.05 mg/mL BSA (-lipids). […] Reactions were allowed to reach equilibrium at 25° C. for 4-18 hours before collecting data on the Analyst from LJL Biosystems (Molecular Devices Sunnyvale, Calif.). […] Dose response curves were fitted using a hyperbolic equation and the data reported is the average of 3 independent experiments.

Compound | EC50 [µM]
COc1cc(/C=C2\SC(N)=NC2=O)ccc1Oc1ccc(C#N)cc1Cl [Compound 2, 4-[4-(2-Amino-4-oxo-4H-thiazol-5-ylidenemethyl)-2-methoxy-phenoxy]-3-chloro-benzonitrile] | 0.21
N#Cc1ccc(Oc2ccc(/C=C3\SC(N)=NC3=O)cc2Cl)c(C(F)(F)F)c1 [Compound 3, 4-[2-Chloro-4-(2-imino-4-oxo-thiazolidin-5-ylidenemethyl)-phenoxy]-3-trifluoromethyl-benzonitrile] | 0.087
N#Cc1ccc(Oc2ccc(/C=C3\SC(N)=NC3=O)cc2F)c2ccccc12 [Compound 4, 4-[2-Fluoro-4-(2-imino-4-oxo-thiazolidin-5-ylidenemethyl)-phenoxy]-naphthalene-1-carbonitrile] | 0.018
COc1cc(/C=C2\SC(N3CCOCC3)=NC2=O)ccc1Oc1ccc(C#N)cc1C(F)(F)F [Compound 5, 4-[2-Methoxy-4-(2-morpholin-4-yl-4-oxo-4H-thiazol-5-ylidenemethyl)-phenoxy]-3-trifluoromethyl-benzonitrile] | 0.02
N#Cc1ccc(Oc2ccc(/C=C3\SC(N4CCOCC4)=NC3=O)cc2F)c(C(F)(F)F)c1 [Compound 6, 4-[2-Fluoro-4-(2-morpholin-4-yl-4-oxo-4H-thiazol-5-ylidenemethyl)-phenoxy]-3-trifluoromethyl-benzonitrile] | 0.05
CN1CCN(C2=NC(=O)/C(=C/c3ccc(Oc4ccc(C#N)cc4C(F)(F)F)c(F)c3)S2)CC1 [Compound 8, 4-{2-Fluoro-4-[2-(4-methyl-piperazin-1-yl)-4-oxo-4H-thiazol-5-ylidenemethyl]-phenoxy}-3-trifluoromethyl-benzonitrile] | 0.014
COc1cc(/C=C2\SC(NC3CC3)=NC2=O)ccc1Oc1ccc(C#N)cc1C(F)(F)F [Compound 9, 4-[4-(2-Cyclopropylamino-4-oxo-4H-thiazol-5-ylidenemethyl)-2-methoxy-phenoxy]-3-trifluoromethyl-benzonitrile] | 0.015
N#Cc1ccc(Oc2ccc(/C=C3\SC(NC4CC4)=NC3=O)cc2F)c(C(F)(F)F)c1 [Compound 10, 4-[4-(2-Cyclopropylamino-4-oxo-4H-thiazol-5-ylidenemethyl)-2-fluoro-phenoxy]-3-trifluoromethyl-benzonitrile] | 0.052
COc1cc(/C=C2\SC(N(C)CCN(C)C)=NC2=O)ccc1Oc1ccc(C#N)cc1C(F)(F)F [Compound 11, 4-(4-{2-[(2-Dimethylamino-ethyl)-methyl-amino]-4-oxo-4H-thiazol-5-ylidenemethyl}-2-methoxy-phenoxy)-3-trifluoromethyl-benzonitrile] | 0.019
COc1cc(/C=C2\SC(N(CCO)CCO)=NC2=O)ccc1Oc1ccc(C#N)cc1C(F)(F)F [Compound 12, 4-(4-{2-[Bis-(2-hydroxy-ethyl)-amino]-4-oxo-4H-thiazol-5-ylidenemethyl}-2-methoxy-phenoxy)-3-trifluoromethyl-benzonitrile] | 0.025
COc1cc(/C=C2\SC(NC3CCNC3)=NC2=O)ccc1Oc1ccc(C#N)cc1C(F)(F)F (centres unmarked) [Compound 13, 4-{2-Methoxy-4-[4-oxo-2-(pyrrolidin-3-ylamino)-4H-thiazol-5-ylidenemethyl]-phenoxy}-3-trifluoromethyl-benzonitrile] | 0.034
COc1cc(/C=C2\SC(NC3CCOCC3)=NC2=O)ccc1Oc1ccc(C#N)cc1C(F)(F)F [Compound 15, 4-{2-Methoxy-4-[4-oxo-2-(tetrahydro-pyran-4-ylamino)-4H-thiazol-5-ylidenemethyl]-phenoxy}-3-trifluoromethyl-benzonitrile] | 0.018
COc1cc(/C=C2\SC(N3CCN(CCO)CC3)=NC2=O)ccc1Oc1ccc(C#N)cc1C(F)(F)F [Compound 16, 4-(4-{2-[4-(2-Hydroxy-ethyl)-piperazin-1-yl]-4-oxo-4H-thiazol-5-ylidenemethyl}-2-methoxy-phenoxy)-3-trifluoromethyl-benzonitrile] | 0.019
COc1cc(/C=C2\SC(NCc3ccccn3)=NC2=O)ccc1Oc1ccc(C#N)cc1C(F)(F)F [Compound 17, 4-(2-Methoxy-4-{4-oxo-2-[(pyridin-2-ylmethyl)-amino]-4H-thiazol-5-ylidenemethyl}-phenoxy)-3-trifluoromethyl-benzonitrile] | 0.029
COCCNC1=NC(=O)/C(=C/c2ccc(Oc3ccc(C#N)cc3C(F)(F)F)c(OC)c2)S1 [Compound 18, 4-{2-Methoxy-4-[2-(2-methoxy-ethylamino)-4-oxo-4H-thiazol-5-ylidenemethyl]-phenoxy}-3-trifluoromethyl-benzonitrile] | 0.112
COc1cc(/C=C2\SC(NCc3cccnc3)=NC2=O)ccc1Oc1ccc(C#N)cc1C(F)(F)F [Compound 19, 4-(2-Methoxy-4-{4-oxo-2-[(pyridin-3-ylmethyl)-amino]-4H-thiazol-5-ylidenemethyl}-phenoxy)-3-trifluoromethyl-benzonitrile] | 0.018
COc1cc(/C=C2\SC(NCCN3CCCC3)=NC2=O)ccc1Oc1ccc(C#N)cc1C(F)(F)F [Compound 20, 4-{2-Methoxy-4-[4-oxo-2-(2-pyrrolidin-1-yl-ethylamino)-4H-thiazol-5-ylidenemethyl]-phenoxy}-3-trifluoromethyl-benzonitrile] | 0.032
COc1cc(/C=C2\SC(NCc3ccncc3)=NC2=O)ccc1Oc1ccc(C#N)cc1C(F)(F)F [Compound 24, 4-(2-Methoxy-4-{4-oxo-2-[(pyridin-4-ylmethyl)-amino]-4H-thiazol-5-ylidenemethyl}-phenoxy)-3-trifluoromethyl-benzonitrile] | 0.016
COc1cc(/C=C2\SC(NCCN3CCCCC3)=NC2=O)ccc1Oc1ccc(C#N)cc1C(F)(F)F [Compound 25, 4-{2-Methoxy-4-[4-oxo-2-(2-piperidin-1-yl-ethylamino)-4H-thiazol-5-ylidenemethyl]-phenoxy}-3-trifluoromethyl-benzonitrile] | 0.018
COc1cc(/C=C2\SC(NCCCN(C)C)=NC2=O)ccc1Oc1ccc(C#N)cc1C(F)(F)F [Compound 26, 4-{4-[2-(3-Dimethylamino-propylamino)-4-oxo-4H-thiazol-5-ylidenemethyl]-2-methoxy-phenoxy}-3-trifluoromethyl-benzonitrile] | 0.013

Further lines, results first:

EC50 [µM] | Compound
0.012 | COc1cc(/C=C2\SC(N)=NC2=O)ccc1Oc1ccc(C#N)cc1C(F)(F)F [Compound 1, 4-[4-(2-Amino-4-oxo-4H-thiazol-5-ylidenemethyl)-2-methoxy-phenoxy]-3-trifluoromethyl-benzonitrile]
0.011 | COc1cc(/C=C2\SC(N3CCN(C)CC3)=NC2=O)ccc1Oc1ccc(C#N)cc1C(F)(F)F [Compound 7, 4-{2-Methoxy-4-[2-(4-methyl-piperazin-1-yl)-4-oxo-4H-thiazol-5-ylidenemethyl]-phenoxy}-3-trifluoromethyl-benzonitrile]
0.013 | COc1cc(/C=C2\SC(NC3CCN(C)CC3)=NC2=O)ccc1Oc1ccc(C#N)cc1C(F)(F)F [Compound 14, 4-{2-Methoxy-4-[2-(1-methyl-piperidin-4-ylamino)-4-oxo-4H-thiazol-5-ylidenemethyl]-phenoxy}-3-trifluoromethyl-benzonitrile]
0.009 | COc1cc(/C=C2\SC(N3CCNC(=O)C3)=NC2=O)ccc1Oc1ccc(C#N)cc1C(F)(F)F [Compound 21, 4-{2-Methoxy-4-[4-oxo-2-(3-oxo-piperazin-1-yl)-4H-thiazol-5-ylidenemethyl]-phenoxy}-3-trifluoromethyl-benzonitrile]
0.009 | COc1cc(/C=C2\SC(NCCCN3CCCC3=O)=NC2=O)ccc1Oc1ccc(C#N)cc1C(F)(F)F [Compound 22, 4-(2-Methoxy-4-{4-oxo-2-[3-(2-oxo-pyrrolidin-1-yl)-propylamino]-4H-thiazol-5-ylidenemethyl}-phenoxy)-3-trifluoromethyl-benzonitrile]
0.009 | COc1cc(/C=C2\SC(N(C)CC(O)CO)=NC2=O)ccc1Oc1ccc(C#N)cc1C(F)(F)F (centres unmarked) [Compound 23, 4-(4-{2-[(2,3-Dihydroxy-propyl)-methyl-amino]-4-oxo-4H-thiazol-5-ylidenemethyl}-2-methoxy-phenoxy)-3-trifluoromethyl-benzonitrile]
0.011 | COc1cc(/C=C2\SC(NCCCN3CCOCC3)=NC2=O)ccc1Oc1ccc(C#N)cc1C(F)(F)F [Example 27, 4-{2-Methoxy-4-[2-(3-morpholin-4-yl-propylamino)-4-oxo-4H-thiazol-5-ylidenemethyl]-phenoxy}-3-trifluoromethyl-benzonitrile]
0.007 | COc1cc(/C=C2\SC(NCCc3ccncc3)=NC2=O)ccc1Oc1ccc(C#N)cc1C(F)(F)F [Example 28, 4-{2-Methoxy-4-[4-oxo-2-(2-pyridin-4-yl-ethylamino)-4H-thiazol-5-ylidenemethyl]-phenoxy}-3-trifluoromethyl-benzonitrile]
0.012 | COc1cc(/C=C2\SC(NCCc3cccnc3)=NC2=O)ccc1Oc1ccc(C#N)cc1C(F)(F)F [Example 29, 4-{2-Methoxy-4-[4-oxo-2-(2-pyridin-3-yl-ethylamino)-4H-thiazol-5-ylidenemethyl]-phenoxy}-3-trifluoromethyl-benzonitrile]
